Values of other authors in patent US8318203B2, “Form of administration of racecadotril” (Bioprojet, priority 2006, dated 2012).

Legend:
[1] = racecadotrilate, active metabolite of the pro-drug racecadotril

Structure (SMILES): O=C(O)CNC(=O)C(CS)Cc1ccccc1 (racemic) [racecadotrilate]
- half-life [1]: three to four

Structure (SMILES): CC(=O)SCC(Cc1ccccc1)C(=O)NCC(=O)OCc1ccccc1 (racemic) [racecadotril, benzyl (RS)-2-[[2-[(acetylsulphanyl)methyl]-3-phenylpropanoyl]amino]acetate]
- solubility in water: insoluble in water
